Measurements from EP2420842A1, “In vivo imaging of calcified lesions” (Rheinisch-Westfälische Technische Hochschule Aachen (RWTH), priority 2010, dated 2012).

What was measured:
[1] = tested on: calcifications; test: Explanted organ fluorescence, 2D reflectance imaging and ROI quantification after co-injection of both probes; assay type: in vivo, DBA/2 mice
[2] = tested on: calcifications; test: In vivo whole body fluorescence, 2D mode (FMT instrument); set-up: species or system DBA/2 mice; settings: standard sensitivity settings
Procedure: (§1) We used the FMT™ 2500 instrument from VisEn Medical Inc. (Bedford, MA). Mice were anesthetized with Isofluran (1.5% air 2L/min), depilated in the scanning area and a background measurement was taken for both wavelengths (680 nm and 750 nm). After this procedure the animals received both OsteoSense 750® (2 nmol in a volume of 150 µl) and Fetuin-A Alexa 680 (50 µl of a 7mg/ml solution) by intraperitoneal injection. 24 h after this application, the mice were analyzed in the FMT again and the fluorescence intensity was detected. Reconstruction of the data was performed by VisEn software.

[3] = tested on: calcifications; test: In vivo 3D fluorescence molecular tomography of whole mice; set-up: species or system DBA/2 mice
Procedure: as §1

[4] = tested on: calcifications; test: Combined fluorescence molecular tomography and micro computed tomography (CT-FMT fusion); assay type: in vivo, mice
Procedure: A dual energy µCT for small animals (TomoScope DUO, CT-Imaging, Erlangen, Germany) was used for anatomical image acquisition. The two electron tubes were both run at energies of 65KV. Each flat panel detector acquired 720 projections at 5 fps, containing 1032x1012 pixels with a pixel size of (50µm)^2. A full rotation was performed and the scan time was 90 seconds per subscan covering 30.8 mm in the transversal direction. Two subscans were acquired to cover almost the entire mouse body. A Feldkamp algorithm was used for reconstruction with isotropic voxel size of […], dimensions of 600x500x440, field of view of 42mm x 35mm x 30.8mm and a soft reconstruction kernel (T10).
The FMT probe was injected 24 hours before imaging through i.v. tail vein injection. Hair was removed with depilatory crème around the region of interest. For preparations and imaging, mice were anesthetized with Isofluran. […]
The reconstructed 3D data sets from CT and FMT were fused by computing a rigid body transformation minimizing the residual error between fiducial markers detected in both modalities. […] The average number of markers that were found in both modalities was 12 with average fiducial error of 0.174mm, which was evaluated on a representative set of 31 scans. […]

[5] = tested on: calcified lesions; test: Histology: staining of calcified lesions with unlabelled or Alexa Fluor 488 labelled fetuin-A (injected or applied to sections); assay type: in vivo, fetuin-A deficient mice
Procedure: The mice were injected with unlabelled or Alexa Fluor® 488 coupled fetuin-A. They received 100 µl / 25 g body weight of a 7 mg/ml solution. Five hours after injection the mice were killed, organs were harvested, embedded in TissueTek (Sakura), and snap-frozen and in liquid nitrogen. Serial cryotome sections were prepared and fixed in ice cold acetone. For general histology hematoxilin/eosin staining and von-Kossa staining were performed.
To localize unlabelled fetuin-A, sections were incubated for one hour with a homemade polyclonal rabbit anti bovine fetuin-A antibody followed by secondary goat anti rabbit Alexa Fluor® 546 antibody and DAPI staining. To localize calcified lesions, sections were incubated with Alexa Fluor® 488-coupled fetuin-A for one hour and then were counterstained with DAPI. Sections of organs from mice injected with Alexa Fluor® 488 labelled Fetuin A were stained with DAPI only.

Molecule: Fetuin-A Alexa 680: Fetuin-A monomer (Sigma Aldrich, F2379), purified by gel chromatography, coupled to Alexa Fluor® 680 dye
- combined signal from regions of interest (ROI), kidneys ([1]; Fetuin-A-/- mice, kidneys): 6740 counts/energy
- combined signal from regions of interest (ROI), lungs ([1]; Fetuin-A-/- mice, lungs): 3303 counts/energy
- staining of heart (explanted organ) ([1]; fetuin-A deficient mice): stained weakly
- staining of brown fat, lungs and kidneys (explanted organs) ([1]; fetuin-A deficient mice, heavily calcified organs): strongly stained
- tissue accumulation, Fetuin-A-/- versus wildtype, kidneys ([1]; kidneys): increased over six-fold
- tissue accumulation, Fetuin-A-/- versus wildtype, lungs ([1]; lungs): almost doubled
- signal (2D reflectance images) ([1]; tissues (brown fat, heart, lung, kidneys) from wildtype mice, OsteoSense at both 1-fold and 10-fold sensitivity setting): 0.25 Count/Energy
- combined signal from regions of interest (ROI), kidneys ([1]; wildtype mice, kidneys): 1025 counts/energy
- combined signal from regions of interest (ROI), lungs ([1]; wildtype mice, lungs): 1816 counts/energy
- whole body 2D scan signal ([2]; D2, Fetuin-A+/+ wildtype mice): no signal
- whole body 2D scan signal ([2]; D2, Fetuin-A-/- mice): strong signals
- 3D fluorescence tomography staining pattern ([3]; DBA/2 wildtype mouse (Fig. 6A, B)): outlined the gut, kidneys and the brown fat pad in the neck
- excretion route (staining of the digestive tract, signal associated with faeces) ([3]; digestive tract): at least partially excreted through this route
- 3D fluorescence tomography signal ([3]; fetuin-A deficient (knockout) mouse (Fig. 6D)): highly detected in the neck and in the left kidney but also in the gut
- 3D fluorescence signal strength ([3]; wildtype and knockout animal (Fig. 6A, C), higher in wildtype than in knockout): much higher
- CT-FMT fused signal localization ([4]; D2, fetuin-A+/+ wildtype mice): low signal in the digestive tract
- CT-FMT fused signal localization ([4]; D2, fetuin-A-/- mice): faint signal in the neck and the thorax, but a higher one in the kidney and the digestive tract

B1: Alexa Fluor® 488-labelled fetuin-A: Fetuin-A monomer (Sigma Aldrich, F2379), purified by gel chromatography, coupled to Alexa Fluor® 488 dye (conjugate, UniProt P12763 19-359, looked up)
Alpha-2-HS-glycoprotein: IPLDPVAGYKEPACDDPDTEQAALAAVDYINKHLPRGYKHTLNQIDSVKVWPRRPTGEVYDIEIDTLETTCHVLDPTPLANCSVRQQTQHAVEGDCDIHVLKQDGQFSVLFTKCDSSPDSAEDVRKLCPDCPLLAPLNDSRVVHAVEVALATFNAESNGSYLQLVEISRAQFVPLPVSVSVEFAVAATDCIAKEVVDPTKCNLLAEKQYGFCKGSVIQKALGGEDVRVTCTLFQTQPVIPQPQPDGAEAEAPSAVPDAAGPTPSAAGPPVASVVVGPSVVAVPLPLHRAHYDLRHTFSGVASVESSSGEAFHVGKTPIVGQPSIPGGPVRLCPGRIRYFKI
modifications: Alexa Fluor 488 dye
notes: Fetuin-A monomer (Sigma Aldrich, F2379), purified by gel chromatography, coupled to Alexa Fluor® 488 dye
- lesion size detected compared with established histology methods (H/E, von Kossa) ([5]; Fig. 1, injected into live animals or applied to histological sections): also detected much smaller lesions
- detection of lesions in serial sections of the heart ([5]; Fig. 2, fetuin-A deficient mouse, compared with Hematoxylin-Eosin and von Kossa): enabled the detection of an additional very small lesion
- staining of calcified lesions ([5]; fetuin-A deficient mice, both in vivo (injected) and on sections): readily stained calcified lesions
